Assay [1] has as its target Induced myeloid leukemia cell differentiation protein Mcl-1 (Homo sapiens, UniProt Q07820). In kind it is functional.
A short description of assay [2]: P. falciparum Dd2 growth inhibitors, dose response, SYBR Green, cherry-picked samples (AID 1159567). In kind it is functional, cell-based.
Another assay concerns the target Cytochrome P450 3A4 (Homo sapiens, UniProt P08684).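 Further: CYP3A4 tested as one member of a cytochrome P450 panel screen.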
Assay [3] in a line: Shn3 3'UTR reporter inhibitors, dose response, cell-based, Clone20 osteoblasts, firefly luciferase, cherry-picked (AID 624132).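 Further: firefly luciferase luminescence from reporter carrying the Shn3 3'UTR in osteoblasts.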 In kind it is functional.
A short description of assay [4]: HepG2 cell cytotoxicity, dose response, cytotoxicity control for Shn3 inhibitor project, CellTiter-Glo, cherry-picked (AID 624134). In kind it is functional, cell-based. Background: In ATP-based viability assays light output follows the ATP content of the culture.
A short description of assay [5]: control 3'UTR Renilla luciferase suppression, dose response, counter-screen for Shn3 inhibitor project, cell-based, Clone20-Shn3RL, cherry-picked (AID 624133). In kind it is functional. For orientation: Counterscreens check selectivity or assay interference.
The target in another assay is Nonstructural protein 1 (Influenza A virus, UniProt Q194T2). In kind it is functional, Influenza A virus (A/California/07/2009(H1N1)).
The next assay has as its target Large T antigen (Simian virus 40, UniProt P03070). In kind it is functional, Betapolyomavirus macacae.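 Further: Confirmatory-stage PubChem screen for compounds that inhibit SV40 T antigen.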
In assay [6] the target is T1, Rac GTPase-activating protein 1 (Homo sapiens, UniProt Q9H0H5).
T1 sequence (Q9H0H5 whole entry): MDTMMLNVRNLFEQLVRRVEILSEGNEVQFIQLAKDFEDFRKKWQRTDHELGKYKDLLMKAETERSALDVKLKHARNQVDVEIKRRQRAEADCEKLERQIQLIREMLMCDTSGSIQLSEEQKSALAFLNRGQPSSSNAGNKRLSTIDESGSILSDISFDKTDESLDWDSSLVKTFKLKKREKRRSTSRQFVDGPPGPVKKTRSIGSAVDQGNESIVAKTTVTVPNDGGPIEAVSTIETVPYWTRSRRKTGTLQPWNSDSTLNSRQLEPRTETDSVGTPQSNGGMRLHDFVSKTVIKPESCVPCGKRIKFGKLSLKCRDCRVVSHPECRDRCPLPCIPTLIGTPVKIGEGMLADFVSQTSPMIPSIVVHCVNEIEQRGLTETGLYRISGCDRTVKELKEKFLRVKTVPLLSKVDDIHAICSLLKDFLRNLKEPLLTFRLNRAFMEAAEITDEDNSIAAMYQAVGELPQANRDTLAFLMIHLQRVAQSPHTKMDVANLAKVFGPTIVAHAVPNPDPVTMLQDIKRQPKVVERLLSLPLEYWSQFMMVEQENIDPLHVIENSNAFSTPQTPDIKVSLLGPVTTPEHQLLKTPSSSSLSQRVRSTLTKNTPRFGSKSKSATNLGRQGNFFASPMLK
The experiment in a line: MgcRacGAP GTPase-activating activity inhibitors, confirmation, biochemical, ADP Hunter fluorescence, primary and confirmatory (AID 624330). In kind it is functional.

Another assay has as its system H9c2. The experiment in a line: cells. In kind it is functional, cell-based. The settings on record: Rattus norvegicus, H9c2, Myocardium.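 Further: confirmatory concentration-response retest of ultra-high-throughput screening hits for modulation of myocardial damage; cell death induced by hydrogen peroxide oxidative stress; compound pretreatment for 60 min then peroxide exposure for 2 h; potency is for protecting the cells against peroxide damage rather than for killing them.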
For assay [7], the target named is T2, Heat shock factor protein 1 (Mus musculus, UniProt P38532).
T2 sequence (P38532 whole entry): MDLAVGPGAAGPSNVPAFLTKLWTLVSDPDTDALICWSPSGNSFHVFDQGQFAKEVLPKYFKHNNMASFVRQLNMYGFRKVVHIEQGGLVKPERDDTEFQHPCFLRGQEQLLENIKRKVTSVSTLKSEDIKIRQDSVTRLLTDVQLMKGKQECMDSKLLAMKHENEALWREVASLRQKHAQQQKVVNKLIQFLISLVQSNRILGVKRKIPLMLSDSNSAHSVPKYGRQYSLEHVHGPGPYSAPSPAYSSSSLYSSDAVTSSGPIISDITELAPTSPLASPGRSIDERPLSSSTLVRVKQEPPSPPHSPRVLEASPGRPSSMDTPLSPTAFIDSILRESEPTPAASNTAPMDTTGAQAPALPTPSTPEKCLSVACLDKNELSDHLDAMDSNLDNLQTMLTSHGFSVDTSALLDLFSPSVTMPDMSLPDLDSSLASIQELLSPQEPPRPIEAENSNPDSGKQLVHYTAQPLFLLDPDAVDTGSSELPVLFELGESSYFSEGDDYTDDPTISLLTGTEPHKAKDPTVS
The experiment in a line: HSF1 potentiators in luciferase reporter cells, confirmation, cell-based, NIH3T3, luminescence, dose retest (AID 435004).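 Further: stress induced by proteasome inhibitor MG132 added 30 min after compound; luciferase reporter driven by HSF1 response element in NIH3T3 cells; actives raise luminescence as potentiators of the MG132 stress response.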 In kind it is functional. Background: In a reporter assay the amount or activity of a reporter protein is the signal.

Activity calls are given as the source filed them.

Usually IC50 stands for the midpoint of a concentration-inhibition curve. One may read the AC50 as the concentration at which the activity in the assay is half-maximal. What is called EC50 is the midpoint of the concentration-response curve.

Consider `COC(=O)c1ccc(CSc2nc(-c3ccccc3)cs2)o1`, for which, in assay [1], the IC50 was 3.49 µM (not active). Regarding `Cc1ccc(-c2ccc([C@H]3[C@@H](CO)N4C(=O)CN(C(=O)Nc5cccc(F)c5)C[C@H]34)cc2)cc1`, in assay [2], the AC50 was 6.09 µM (active). As to `Cc1ccc(OCCCC(=O)Nc2ccccc2C(F)(F)F)cc1`, the IC50 in assay [1] was > 54 µM (not active). In addition, the AC50 at Cytochrome P450 3A4 is 15.8 µM (inconclusive). `COc1ccc(C(c2c(O)cc(C)oc2=O)c2c(O)cc(C)oc2=O)cc1`: the IC50 in assay [1] is recorded as 1.45 µM (not active).

Regarding `CCOC(=O)C1(CCOc2ccccc2)CCN(Cc2ccc(OC)c(COC)c2)CC1`, the AC50 in assay [3] is 3.87 µM (active); in [4], 32.5 µM (active); in assay [5], 20.5 µM (active). Take `O=C(NN=Cc1c(O)ccc2ccccc12)c1ccc[n+](CCO)c1`: the IC50 on Nonstructural protein 1 was 3.07 µM (active). Turning to `O=[N+]([O-])c1cccc(S(=O)(=O)N/N=C/c2ccc(O)cc2)c1`, the IC50 was 10.6 µM (active) at Large T antigen and 49.5 µM (active) in assay [6]. On to `CN1CCN(S(=O)(=O)c2ccc(N(C)Cc3ccc(C(F)(F)F)cc3)c([N+](=O)[O-])c2)CC1`, for which the results for the AC50 in assay [3], in assay [4] and in assay [5] were 6.3 µM (active), 45.9 µM (active) and 17.6 µM (active), respectively. `Cc1ccccc1-c1nnc(S)n1/N=C/C=C/c1ccco1`: the IC50 at Large T antigen was 53 µM (active). Still for that read-out and setting: as for `Cc1cc(-c2nnc(S)n2/N=C/C=C/c2ccco2)[nH]n1`, the figure is 32.1 µM (active).

Consider `CCS(=O)(=O)N1CCC2(CC1)CN(Cc1ccc3c(c1)OCO3)[C@H](CO)c1[nH]c3cc(OC)ccc3c12`, for which the AC50 in [2] was 5.03 µM (active).

In the case of `CN(C)c1ccc(NC(=O)CN2CCC(N3CCCCC3)CC2)cc1`, the IC50 at Large T antigen was 22.9 µM (active). Take `N#CC(C#N)=C(N)/C(C#N)=C/c1cc(O)c(O)c(O)c1` [TYRPHOSTIN 51]: the IC50 at Large T antigen was 19.8 µM (active). On to `COc1ccc(-c2ccc(Nc3ccc(S(=O)(=O)N4CCCC4)cc3)nn2)cc1OC`, for which, in the assay with H9c2, the IC50 is > 79 µM (inactive). For the same compound, the AC50 was 20.1 µM (active) in assay [3] and 27.6 µM (active) in [5].

Turning to `C[C@@H]1CN([C@H](C)CO)C(=O)c2c(c3ccccc3n2C)-c2ccccc2CO[C@@H]1CN(C)C(=O)c1cc(Cl)cc(Cl)c1`, the AC50 in [2] is 3.06 µM (active).

As to `Cc1cccc(S(=O)(=O)N2C[C@@H]3N[C@H](C2)[C@@H]3c2ccc(-c3cccnc3)cc2)c1`, the AC50 in [2] was 6 µM (active).

Take `COc1ccc(C(=O)Cn2c(C(=O)/C=C/c3ccccc3)nc3ccccc32)cc1`: the EC50 in assay [7] was 4.59 µM (active). In addition, the AC50 in assay [3] was 4.47 µM (active); in assay [4] it was 59.1 µM (active). Regarding `CCCN(C)C[C@H]1Oc2cc(C#Cc3cccnc3)ccc2S(=O)(=O)N([C@H](C)CO)C[C@H]1C`, the concentration at half-maximal activity (AC50) in [2] is 3.19 µM (active).

Consider `O=C(COC(=O)Cn1cnc2ccccc21)Nc1ccc2c(c1)C(=O)c1ccccc1C2=O`, for which, in assay [1], the IC50 is 6.69 µM (active).
